The subject of one experiment is MDA-MB-468 cells. In words: MDA-MB-468 cell proliferation inhibition (MTT). In kind it is cell-based. Particulars: MDA-MB-468 proliferation. The procedure:
MDA-MB-468 cells are one of the triple-negative breast cancer (TNBC: negative for the expression of estrogen receptor, progesterone receptor and HER2) cells known as a malignant tumor that is difficult to diagnose at an early stage and has a high metastatic capacity, and these cells are used to test inhibition of proliferation and survival of breast cancer cells.
MDA-MB-468 cells cultured in a 96-well cell culture plate were treated with the compound of the present invention and cultured for 72 hours. Thereafter, the antiproliferative effect of the compound was assayed by the MTT method using a tetrazolium salt.

The next experiment has as its system LNCaP. In words: Cancer cell proliferation GI50 (CCK-8). In kind it is cell-based. Particulars: Homo sapiens, prostate cancer, 72 hours. The procedure:
(§1) In this example, in order to confirm the proliferation inhibitory effect on various cancer cells, Compound 121 was tested as follows.
(§2) The cells were cultured with a culture medium shown in Table 9 below at 37° C. in a humidified condition in the presence of 5% CO2. Each cell cultured in a 96-well cell culture plate was treated with the compound of the present invention and cultured for 72 hours.

A further experiment deals with BDCM. In words: Cancer cell proliferation GI50 (CCK-8). It is filed as cell-based. The following applies: acute myeloid leukemia, 72 hours. The procedure:
as §1, §2

For another experiment, the system named is K562. In words: Cancer cell proliferation GI50 (CCK-8). It is filed as cell-based. Particulars: Homo sapiens, K562, chronic myeloid leukemia (CML), 72 hours. The procedure: as §1, §2
Another experiment has as its system NB4. The experiment is described as follows: Cancer cell proliferation GI50 (CCK-8). In kind it is cell-based. The following applies: Homo sapiens, NB-4, NB4, acute promyelocytic leukemia, 72 hours. The procedure: as §1, §2
For a further experiment, the system named is OVCAR-3. In words: Cancer cell proliferation GI50 (CCK-8). In kind it is cell-based. The following applies: Homo sapiens, OVCAR-3, ovarian cancer, 72 hours. The procedure:
as §1, §2

Another experiment deals with MOLT4. The experiment is described as follows: Cancer cell proliferation GI50 (CCK-8). It is filed as cell-based. Particulars: Homo sapiens, MOLT-4, MOLT4, acute lymphocytic leukemia, 72 hours. The procedure:
as §1, §2

For a further experiment, the system named is A549. In words: Cancer cell proliferation GI50 (CCK-8). In kind it is cell-based. The following applies: Homo sapiens, A549, lung cancer, 72 hours. The procedure: as §1, §2
Another experiment deals with KU-812. The experiment is described as follows: Cancer cell proliferation GI50 (CCK-8). It is filed as cell-based. The following applies: Homo sapiens, KU812, KU-812, chronic myeloid leukemia, 72 hours. The procedure: as §1, §2
In a further experiment the test system is THP/DEC-2. The experiment is described as follows: Cancer cell proliferation GI50 (CCK-8). It is filed as cell-based. Particulars: THP/DEC-2, acute myeloid leukemia, 72 hours. The procedure: as §1, §2
Another experiment concerns NALM-20. The experiment is described as follows: Cancer cell proliferation GI50 (CCK-8). It is filed as cell-based. Particulars: NALM-20, B cell acute lymphocytic leukemia, 72 hours. The procedure:
as §1, §2

Another experiment relates to HepG2. In words: Cancer cell proliferation GI50 (CCK-8). It is filed as cell-based, human. The following applies: Homo sapiens, HepG2, liver cancer, 72 hours. The procedure: (§3) The proliferation effect of SY-1365, which is known to have a proliferation inhibitory effect on various carcinoma cells, and the compound of the present invention on various cancer cells was measured and compared as GI50 (half maximal growth inhibitory concentration, the concentration at which cell proliferation is reduced by half).
(§4) Various carcinoma cells were cultured at 37° C. in a humidified condition in the presence of 5% CO2. Each cell cultured in a 96-well cell culture plate was treated with the compound of the present invention and cultured for 72 hours.
as §1, §2

The target in experiment [1] is T1, Recombinant purified human CDK7 (Homo sapiens, UniProt P50613).
T1 construct: purchased ThermoFisher PV3868
In words: CDK7 activity inhibition, ADP-Glo kinase assay. Particulars: ATP 90 μM, MBP substrate, 2 hours 30° C. It is filed as biochemical. A digest of the protocol: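 Human recombinant CDK7 (50 ng per reaction) in 40 mM Tris-Cl pH 7.5, 20 mM MgCl2, 0.1 mg/ml BSA, 50 μM DTT, with 1% DMSO. The reaction used 90 μM ATP and 0.2 μg/μl MBP substrate for 2 h at 30 °C. ADP formed was quantified by ADP-Glo luminescence to derive inhibition.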
(In general: ADP-Glo turns the ADP formed in a reaction into a luminescent signal.)

A further experiment deals with MV-4-11 cells. The experiment is described as follows: MV-4-11 cell proliferation inhibition (CCK-8). It is filed as cell-based. Particulars: Homo sapiens, MV4-11, MV-4-11 proliferation, 72 hours. A digest of the protocol: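 The FLT3-mutant AML line MV-4-11 was exposed to compound for 72 h. Antiproliferative effect was read with the tetrazolium-based CCK-8 method.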

The test system of the next experiment is Hep3B. The experiment is described as follows: Cancer cell proliferation GI50 (CCK-8). It is filed as cell-based. The following applies: Homo sapiens, liver cancer, 72 hours. The procedure:
as §3, §4, §1, §2

The next experiment deals with Huh7. The experiment is described as follows: Cancer cell proliferation GI50 (CCK-8). Particulars: Homo sapiens, Huh7 (Huh-7), liver cancer, 72 hours. It is filed as cell-based. The procedure: as §3, §4, §1, §2
The subject of another experiment is MDA-MB-468. In words: Cancer cell proliferation GI50 (CCK-8). It is filed as cell-based. The following applies: Homo sapiens, MDA-MB-468, breast cancer, 72 hours. The procedure: as §3, §4, §1, §2
Another experiment concerns MDA-MB-231. The experiment is described as follows: Cancer cell proliferation GI50 (CCK-8). Particulars: Homo sapiens, MDA-MB-231, breast cancer, 72 hours. In kind it is cell-based. The procedure:
as §3, §4, §1, §2

T1 sequence (P50613 whole entry): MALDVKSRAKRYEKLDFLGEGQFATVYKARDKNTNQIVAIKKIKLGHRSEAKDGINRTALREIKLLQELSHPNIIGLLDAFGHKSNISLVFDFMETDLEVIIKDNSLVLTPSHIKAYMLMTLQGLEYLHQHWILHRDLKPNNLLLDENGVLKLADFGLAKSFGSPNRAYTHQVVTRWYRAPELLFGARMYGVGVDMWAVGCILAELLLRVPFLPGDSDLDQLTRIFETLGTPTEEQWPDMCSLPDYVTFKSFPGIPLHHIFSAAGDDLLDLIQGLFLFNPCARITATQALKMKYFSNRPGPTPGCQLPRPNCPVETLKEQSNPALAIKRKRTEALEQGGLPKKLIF
T1 sequence (P51946 whole entry partner): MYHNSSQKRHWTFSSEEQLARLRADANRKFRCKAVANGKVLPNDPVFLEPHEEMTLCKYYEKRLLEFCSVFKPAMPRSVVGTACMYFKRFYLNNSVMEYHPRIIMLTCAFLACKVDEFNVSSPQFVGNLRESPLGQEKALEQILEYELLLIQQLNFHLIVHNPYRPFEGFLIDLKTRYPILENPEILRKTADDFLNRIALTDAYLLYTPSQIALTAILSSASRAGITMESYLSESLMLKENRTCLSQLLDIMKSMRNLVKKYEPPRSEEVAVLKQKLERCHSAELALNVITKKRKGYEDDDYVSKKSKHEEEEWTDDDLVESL
T1 sequence (P51948 whole entry partner): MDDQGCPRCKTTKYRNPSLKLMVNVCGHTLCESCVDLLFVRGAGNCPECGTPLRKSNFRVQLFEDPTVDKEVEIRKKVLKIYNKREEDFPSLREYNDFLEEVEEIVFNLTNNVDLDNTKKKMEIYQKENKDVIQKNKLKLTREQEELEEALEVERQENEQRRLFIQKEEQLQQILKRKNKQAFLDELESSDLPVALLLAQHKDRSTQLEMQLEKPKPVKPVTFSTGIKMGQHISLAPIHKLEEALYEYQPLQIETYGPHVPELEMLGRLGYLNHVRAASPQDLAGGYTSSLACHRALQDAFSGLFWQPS

As to `CCc1cnc(NC(=O)[C@@H](C)c2cccc(-c3cnc(NC(=O)/C=C/CN(C)C)c(C#N)c3)c2)s1` [Compound 121, (S,E)-N-(3-cyano-5-(3-(1-((5-ethylthiazol-2-yl)amino)-1-oxopropan-2-yl)phenyl)pyridin-2-yl)-4-(dimethylamino)but-2-enamide], the IC50 – broadly, the concentration at which inhibition is half-maximal – in the experiment with MDA-MB-468 cells (Homo sapiens, MDA-MB-468, 72 h) is ≤ 14 nM; in the experiment on MDA-MB-468 cells (72 hours), 14 nM; in experiment [1], 4.2 nM; in the experiment on MV-4-11 cells it was 4.3 nM. Also, the GI50 – broadly, the concentration that inhibits growth by half – with LNCaP turned out to be 8 nM; in the experiment on BDCM, 2.68 nM; in the experiment with K562 it was 18.9 nM; with NB4, 12.9 nM; in the experiment with OVCAR-3, 4.8 nM; in the experiment with MOLT4, 4.51 nM. For the same compound, the concentration for 50% growth inhibition (GI50) in the experiment with A549 came out at 8.6 nM; in the experiment with KU-812 it was 3.64 nM; in the experiment on THP/DEC-2, 3.6 nM; in the experiment with NALM-20, 18.6 nM; with HepG2, 14 nM; in the experiment on Hep3B, 9 nM. The values for the GI50 in the experiment on Huh7, in the experiment with MDA-MB-468 and with MDA-MB-231 were 7 nM, 4 nM and 6 nM, respectively.

Values taken from patent publication US20230095520A1, “PHARMACEUTICAL COMPOSITION FOR PREVENTING OR TREATING CANCER COMPRISING AZOLE DERIVATIVES OR PHARMACEUTICALLY ACCEPTABLE SALT THEREOF” (Yungjin Pharm. Co., Ltd., priority 2020, published 2023).
